In the assay the test system is human σ1 receptor and human μ-opioid receptor. As to the kind of experiment: Human σ1 receptor radioligand assay and human μ-opioid receptor radioligand assay (μ and σ1 dual binding). Further details: key to μ and σ1 dual binding: +: Both Ki-μ and Ki-σ1>=500 nM; ++: One Ki<500 nM while the other Ki is >=500 nM; +++: Both Ki-μ and Ki-σ1<500 nM; ++++: Both Ki-μ and Ki-σ1<100 nM.

Setting [1] is: combined class for Ki-μ ([3H]-DAMGO, CHO-K1 membranes) and Ki-σ1 ([3H](+)-pentazocine, HEK-293 membranes).

Like-named read-outs stand apart in the source and are kept apart here.

Consider `CCN1CCc2ccccc2C12CCN(CC(O)c1ccncc1)CC2` (stereo not drawn) [Example 146, 2-(2-ethyl-3,4-dihydro-2H-spiro[isoquinoline-1,4′-piperidine]-1′-yl)-1-(pyridin-4-yl)ethanol], for which the “μ and σ1 dual binding” value was “++”.
In the case of `CN(C)C(=O)CCN1CCC2(CC1)c1ccccc1CCN2C` [Example 68, N,N-dimethyl-3-(2-methyl-3,4-dihydro-2H-spiro[isoquinoline-1,4′-piperidine]-1′-yl)propanamide], the Ki is less than 500 nM.
In turn, `CC(=O)N1CCc2ccccc2C12CCN(CCC(C)C)CC2` [Example 15, 1-(1′-isopentyl-3,4-dihydro-2H-spiro[isoquinoline-1,4′-piperidine]-2-yl)ethanone] came in with a Ki of less than 500 nM.
Take `CC(=O)N1CCc2ccccc2C12CCN(CCC(=O)N(C)c1ccccc1)CC2` [Example 35, 3-(2-acetyl-3,4-dihydro-2H-spiro[isoquinoline-1,4′-piperidine]-1′-yl)-N-methyl-N-phenylpropanamide]: the “μ and σ1 dual binding” value is listed as “++”.
In turn, `CN1CCc2ccccc2C12CCN(CC(O)c1ccccc1)CC2` (stereo not drawn) [Example 120, 2-(2-Methyl-3,4-dihydro-2H-spiro[isoquinoline-1,4′-piperidin]-1′-yl)-1-phenyl-ethanol] gave a Ki of less than 500 nM.
The same measure, in the same setting: in the case of `CCN(C(=O)CN1CCC2(CC1)c1ccccc1CCN2CC)C1CC1` [Example 154, N-cyclopropyl-N-ethyl-2-(2-ethyl-3,4-dihydro-2H-spiro[isoquinoline-1,4′-piperidine]-1′-yl)acetamide] it was less than 500 nM.
As to `CN1CCc2ccccc2C12CCN(CC(=O)N1CC[C@@H](F)C1)CC2` [Example 95, (R)-1-(3-fluoropyrrolidin-1-yl)-2-(2-methyl-3,4-dihydro-2H-spiro[isoquinoline-1,4′-piperidine]-1′-yl)ethanone], the “μ and σ1 dual binding” value is on record as “++”.
On the same count and under the same terms, in the case of `CCOCCN1CCC2(CC1)c1ccccc1CCN2C(C)=O` [Example 24, 1-(1′-(2-ethoxyethyl)-3,4-dihydro-2H-spiro[isoquinoline-1,4′-piperidine]-2-yl)ethanone] it was “++”; in that of `CCCN(CC)C(=O)CN1CCC2(CC1)c1ccccc1CCN2C` [Example 105, N-ethyl-2-(2-methyl-3,4-dihydro-2H-spiro[isoquinoline-1,4′-piperidine]-1′-yl)-N-propylacetamide], “++”.
As for `CCN1CCc2ccccc2C12CCN(CC(=O)N1CCOCC1)CC2` [Example 147, 2-(2-ethyl-3,4-dihydro-2H-spiro[isoquinoline-1,4′-piperidine]-1′-yl)-1-morpholinoethanone], the Ki is less than 500 nM.
Compound `CN1Cc2ccccc2C12CCN(CCc1ccccc1)CC2` [Example 140, 2-Methyl-1′-phenethylspiro[isoindoline-1,4′-piperidine]] gave a Ki of less than 500 nM.
As to `CC(=O)N1CCc2ccccc2C12CCN(CC(=O)N1CCOCC1)CC2` [Example 34, 2-(2-acetyl-3,4-dihydro-2H-spiro[isoquinoline-1,4′-piperidine]-1′-yl)-1-morpholinoethanone], the Ki under setting [1] was no less than 500 nM.
On to `CCC(CC)N(CC)C(=O)CN1CCC2(CC1)c1ccccc1CCN2C` [Example 109, N-ethyl-2-(2-methyl-3,4-dihydro-2H-spiro[isoquinoline-1,4′-piperidine]-1′-yl)-N-(pentan-3-yl)acetamide], for which the “μ and σ1 dual binding” value was “++”.
Still for that read-out and setting: in the case of `CN1CCc2ccccc2C12CCN(CC(=O)N1CCCC1)CC2` [Example 90, 2-(2-methyl-3,4-dihydro-2H-spiro[isoquinoline-1,4′-piperidine]-1′-yl)-1-(pyrrolidin-1-yl)ethanone] it was “++”; in that of `CC(C(=O)N1CCC(F)CC1)N1CCC2(CC1)c1ccccc1CCN2C` (stereo not drawn) [Example 86, 1-(4-fluoropiperidin-1-yl)-2-(2-methyl-3,4-dihydro-2H-spiro[isoquinoline-1,4′-piperidine]-1′-yl)propan-1-one], “++”.
`CN1CCc2ccccc2C12CCN(Cc1ccccn1)CC2` [Example 82, 2-methyl-1′-(pyridin-2-ylmethyl)-3,4-dihydro-2H-spiro[isoquinoline-1,4′-piperidine]]: the Ki is less than 500 nM.
Same read-out and setting: in the case of `CN1CCc2ccccc2C12CCN(CC(=O)N1CCC(F)CC1)CC2` [Example 58, 1-(4-fluoropiperidin-1-yl)-2-(2-methyl-3,4-dihydro-2H-spiro[isoquinoline-1,4′-piperidine]-1′-yl)ethanone] it was less than 500 nM.
`CN1CCc2ccccc2C12CCN(CC(=O)N1CCC(F)(F)C1)CC2` [Example 92, 1-(3,3-difluoropyrrolidin-1-yl)-2-(2-methyl-3,4-dihydro-2H-spiro[isoquinoline-1,4′-piperidine]-1′-yl)ethanone]: the “μ and σ1 dual binding” value is recorded as “++”.
In turn, `CN1CCc2ccccc2C12CCN(CCN1CCOCC1)CC2` [Example 65, 4-(2-(2-Methyl-3,4-dihydro-2H-spiro[isoquinoline-1,4′-piperidine]-1′-yl)ethyl)morpholine] showed a Ki of less than 500 nM.
In the case of `C[C@@H]1CN(C(=O)CN2CCC3(CC2)c2ccccc2CCN3C)C[C@H](C)O1` [Example 115, 1-((2S,6R)-2,6-dimethylmorpholino)-2-(2-methyl-3,4-dihydro-2H-spiro[isoquinoline-1,4′-piperidine]-1′-yl)ethanone], the Ki under setting [1] is no less than 500 nM.
The compound `CN1CCc2ccccc2C12CCN(CC1CCCCC1)CC2` [Example 66, 1′-(cyclohexylmethyl)-2-methyl-3,4-dihydro-2H-spiro[isoquinoline-1,4′-piperidine]] registered an inhibitory constant (Ki) of less than 500 nM.
In the case of `O=C(CN1CCC2(CC1)c1ccccc1CCN2CC(F)(F)F)N1CCOCC1` [Example 134, 1-Morpholino-2-(2-(2,2,2-trifluoroethyl)-3,4-dihydro-2H-spiro[isoquinoline-1,4′-piperidine]-1′-yl)ethanone], the “μ and σ1 dual binding” value is given as “++”.
On the same count and under the same terms, the same measure for `CCN1CCc2ccccc2C12CCN(CC(=O)N1CCS(=O)(=O)CC1)CC2` [Example 149, 2-(2-ethyl-3,4-dihydro-2H-spiro[isoquinoline-1,4′-piperidine]-1′-yl)-1-(1,1-dioxo-thiomorpholin-4-yl)ethanone]: “++”.
For `CC(=O)N1CCc2ccccc2C12CCN(CCO)CC2` [Example 41, 1-(1′-(2-Hydroxyethyl)-3,4-dihydro-2H-spiro[isoquinoline-1,4′-piperidine]-2-yl)ethanone], under setting [1], the Ki was no less than 500 nM.
`CN1CCc2ccccc2C12CCN(CC(O)c1ccncc1)CC2` (stereo not drawn) [Example 98, 2-(2-methyl-3,4-dihydro-2H-spiro[isoquinoline-1,4′-piperidine]-1′-yl)-1-(pyridin-4-yl)ethanol] gave a Ki of less than 500 nM.
As to `CC(=O)Oc1ccc2c(c1)CCN(C(C)=O)C21CCN(CCc2ccccc2)CC1` [Example 49, 2-Acetyl-1′-phenethyl-3,4-dihydro-2H-spiro[isoquinoline-1,4′-piperidine]-6-yl acetate], the Ki under setting [1] was no less than 500 nM.
Same read-out and setting: in the case of `CC(=O)N1CCc2ccccc2C12CCN(CCN1CCCCC1)CC2` [Example 14, 1-(1′-(2-(piperidin-1-yl)ethyl)-3,4-dihydro-2H-spiro[isoquinoline-1,4′-piperidine]-2-yl)ethanone] it was no less than 500 nM.
For `CCN1CCc2ccccc2C12CCN(CCN1CCOCC1)CC2` [Example 148, 4-(2-(2-ethyl-3,4-dihydro-2H-spiro[isoquinoline-1,4′-piperidine]-1′-yl)ethyl)morpholine], the “μ and σ1 dual binding” value is on record as “++”.
On the same count and under the same terms, the same measure for `COCCN1CCC2(CC1)c1ccccc1CCN2C` [Example 77, 1′-(2-methoxyethyl)-2-methyl-3,4-dihydro-2H-spiro[isoquinoline-1,4′-piperidine]]: “++”.
Consider `CC(=O)N1CCc2ccccc2C12CCN(CCOCC(C)C)CC2` [Example 31], for which the Ki was less than 500 nM.
On the same count and under the same terms, the same measure for `CC(=O)N1CCc2ccccc2C12CCN(CC1CCCCC1)CC2` [Example 13, 1-(1′-(cyclohexylmethyl)-3,4-dihydro-2H-spiro[isoquinoline-1,4′-piperidine]-2-yl)ethanone]: less than 500 nM; for `CN1CCc2ccccc2C12CCN(Cc1cccnc1)CC2` [Example 84, 2-methyl-1′-(pyridin-3-ylmethyl)-3,4-dihydro-2H-spiro[isoquinoline-1,4′-piperidine]]: less than 500 nM.
Compound `CS(=O)(=O)N1CCc2ccccc2C12CCN(CCc1ccccc1)CC2` [Example 53, 2-(Methylsulfonyl)-1′-phenethyl-3,4-dihydro-2H-spiro[isoquinoline-1,4′-piperidine]] registered a Ki of less than 100 nM.
Still for that read-out and setting: the same measure for `CC1CCN(C(=O)CN2CCC3(CC2)c2ccccc2CCN3C)CC1` [Example 114, 2-(2-Methyl-3,4-dihydro-2H-spiro[isoquinoline-1,4′-piperidine]-1′-yl)-1-(4-methylpiperidin-1-yl)ethanone]: less than 500 nM.
On to `CC(=O)N1CCc2ccccc2C12CCN(CC(C)C)CC2` [Example 12, 1-(1′-isobutyl-3,4-dihydro-2H-spiro[isoquinoline-1,4′-piperidine]-2-yl)ethanone], for which the “μ and σ1 dual binding” value is listed as “++”.
With `FC(F)(F)CN1CCc2ccccc2C12CCN(CCc1cccnc1)CC2` [Example 137, 1′-(2-(pyridin-3-yl)ethyl)-2-(2,2,2-trifluoroethyl)-3,4-dihydro-2H-spiro[isoquinoline-1,4′-piperidine]], the Ki was less than 500 nM.
The same measure, in the same setting: in the case of `c1ccc(CCN2CCC3(CC2)c2ccccc2CCN3Cc2nccs2)cc1` [Example 64, 2-((1′-phenethyl-3,4-dihydro-2H-spiro[isoquinoline-1,4′-piperidine]-2-yl)methyl)thiazole] it was less than 500 nM; in that of `CN1CCc2ccccc2C12CCN(CCc1ccccc1)CC2` [Example 54, 2-methyl-1′-phenethyl-3,4-dihydro-2H-spiro[isoquinoline-1,4′-piperidine]], less than 100 nM.
For the compound `CN1CC(C)(C)c2ccccc2C12CCN(CC(=O)N1CCCCC1)CC2` [Example 138, 1-(Piperidin-1-yl)-2-(2,4,4-trimethyl-3,4-dihydro-2H-spiro[isoquinoline-1,4′-piperidine]-1′-yl)ethanone], the Ki under setting [1] was no less than 500 nM.

One may read the Ki as a dissociation constant, usually derived from enzyme kinetics or from competition with a known ligand.

These data come from patent publication US10407428B2, “Spiro-isoquinoline-1,4′-piperidine compounds having multimodal activity against pain” (ESTEVE PHARMACEUTICALS, S.A., priority 2014, dated 2019).
